The text below walks through data of paper PMC6760275, “Comparison of Zebrafish Larvae and hiPSC Cardiomyocytes for Predicting Drug-Induced Cardiotoxicity in Humans” (Toxicological Sciences, 2019).

For one series, the system named is Pluricyte hiPSC-CMs. As to the kind of experiment: hiPSC-CM calcium transient FLIPR assay. Particulars: 10 μM; for detection as cardiotoxic in hiPSC-CMs (hiPSC-CM positive): 0.1% DMSO, any feature significant at any time point (5, 30, 90 min); for time point of detection in hiPSC-CMs: T1 5 min, T2 30 min, T3 90 min after compound addition.
Another series deals with zebrafish larvae. Briefly: ZeCardio cardiotoxicity screen in zebrafish larvae (heart and blood flow imaging). How it is done: Zebrafish (Danio rerio) were mated, staged, and raised by standard methods ([Westerfield, 2000]). The library screen was performed on double transgenic larvae for Tg[cmlc2: GFP] ([Huang et al., 2003]) and Tg[gata1: DsRed] ([Traver et al., 2003]). Tg[cmlc2: GFP] expresses green fluorescent protein (GFP) in cardiomyocytes and Tg[gata1: DsRed] expresses DsRed fluorescent protein in a subset of erythrocytes.
Determination of NOEC was achieved through an Acute Toxicity test performed on AB wildtype larvae from 3 to 96 hpf, as previously described ([Cornet et al., 2017]) (see Supplementary Table 1 for NOEC data for each compound). For the cardiotoxic drug screening, double transgenic zebrafish larvae for Tg[cmlc2: GFP] and Tg[gata1: DsRed] were collected and raised in Embryo Medium (E3/60× Stock: 34.4 g NaCl, 1.52 g KCl, 5.8 g CaCl2·2H2O, 9.8 g MgSO4·7H2O, add 18 MOhm double distilled water up to 2000 ml; pH: 7.2) at 28.5°C in a 12 h light/12 h dark cycle. From 24 hpf onward, larvae were incubated with N-PhenylThioUrea (PTU) (Sigma-Aldrich, No. P7629) 0.2 mM to reduce pigmentation. Embryo medium was changed every day until 5 dpf, when double positive transgenic larvae were selected. […] Larvae were immersed in E3 with PTU 0.2 mM and Tricaine methanesulfonate (Sigma-Aldrich, No. E10521) at […] working concentration and distributed in 96-well plates in 100 µl per well. Then, 100 µl of compound solution was added at double NOEC concentration to reach the working concentration per compound: NOEC, DMSO 1%, and the final volume of 200 µl per larva per well. Negative control larvae were incubated in 200 µl 1% DMSO. Embryos were allowed to incubate in the compound solution for 4 h before. The developmental stage selected for analysis (5 dpf) was chosen because heart electrophysiological maturation and heart rhythm are stabilized from 96 hpf ([Tessadori et al., 2012]). One hundred and twenty hours post fertilization constitutes the latest stage to perform analysis after heart maturation and with conformation to ethical guidelines. Finally, the drug incubation time of 4 h was selected according to a previously established experimental set up ([Cornet et al., 2017]). Twelve embryos (1 embryo/well) were imaged for each compound, and the screening of the whole library was distributed over 15 experimental days. On each experimental day, 8 molecules were imaged: 7 drugs and the negative control 1% DMSO, to allow intraexperimental comparison.
The hardware conforming the screening platform allows zebrafish larvae sampling from multi-well plates to allow their position and automatic orientation in a glass capillary under a microscope to perform high-throughput imaging acquisition. It integrates 2 commercially available systems. First, an integrated VAST system (Union Biometrica) ([Pardo-Martin et al., 2010]), which consists of 2 complementary devices: (1) LP sampler, an automated fluid system capable of aspirating small to medium sized particles from multi-well plates and delivering them intact to the VAST BioImager, and (2) VAST BioImager, an automated fluid system, which positions zebrafish larva in a glass capillary. Once introduced in the glass capillary, the larva is recognized by an integrated imaging system and rotated to the desired angle for external imaging. Second, a Leica DM6B upright widefield microscope with a motorized Z-stage and Leica DFC9000 GTC (4.2 megapixel) CMOS camera particularly suited for high-speed fluorescent imaging applications achieves the fluorescent time-lapse imaging. The 2 systems, VAST and Leica microscope, communicate to coordinate the tasks of sampling, positioning, and imaging. To control the microscope, the LASX software (Leica) was used. To focus fluorescent structures in z-direction, the Autofocus function in LASX was used.

The conditions of series [1]: cited from earlier work; for cardiovascular clinical adverse effects: parent drug and/or metabolites, ref Zhang et al., 2012; for market withdrawal due to cardiovascular adverse effects: ref Onakpoya et al., 2016, Siramshetty et al.
The next series deals with AB wildtype larvae. Briefly: Acute Toxicity test for NOEC determination in AB wildtype zebrafish larvae, 3 to 96 hpf. Format: in vivo, Danio rerio. The conditions noted are these: higher concentration than the working concentration.
The test system of a further series is hERG. Details: method as in Guo et al., 2007; Shi et al., 2015. The conditions noted are these: human patients and rat cardiomyocytes; ref Guo et al., 2007; Shi et al., 2015; cited from earlier work.
Setting [2] is: 5 dpf larvae, 4 h incubation at NOEC, 1% DMSO, positive if any numerical feature significant or flag incidence above 30%.

The structures appear in SMILES notation. “Also recorded” adds a separate entry of the source. Where two headings read alike, the source gives them in different places.

Experimental for AB wildtype larvae: Determination of NOEC was achieved through an Acute Toxicity test performed on AB wildtype larvae from 3 to 96 hpf, as previously described ([Cornet et al., 2017]) (see Supplementary Table 1 for NOEC data for each compound). […] Larvae were immersed in E3 with PTU 0.2 mM and Tricaine methanesulfonate (Sigma-Aldrich, No. E10521) at 168 mg/ml working concentration and distributed in 96-well plates in 100 µl per well. Then, 100 µl of compound solution was added at double NOEC concentration to reach the working concentration per compound: NOEC, DMSO 1%, and the final volume of 200 µl per larva per well. Negative control larvae were incubated in 200 µl 1% DMSO. Embryos were allowed to incubate in the compound solution for 4 h before. […] Twelve embryos (1 embryo/well) were imaged for each compound, and the screening of the whole library was distributed over 15 experimental days. On each experimental day, 8 molecules were imaged: 7 drugs and the negative control 1% DMSO, to allow intraexperimental comparison.
Experimental for Pluricyte hiPSC-CMs: hiPSC-CMs beat spontaneously under culture conditions and the beating pattern can be addressed by Ca^2+ dyes reporting the intracellular Ca^2+ concentration that is then measured by the fluorometric imaging plate reader (FLIPR).
This standard protocol was changed at 2 steps: hiPSC-CMs were not spun after thawing and the final concentration was 15 000 instead of 10 000 cells/well.
Twenty microliters of Ca-6 dye solution was added to each well of the assay plate and the assay plate was incubated for 2 h at 37°C, 5% CO2 in the dark. […] After baseline measurement, compounds were added and the fluorescence signal was measured 5, 30, and 90 min after compound treatment. Fifteen microliters of compound dilution was transferred from a compound source plate (40 μM, 0.4% DMSO) to the assay plate (already containing 25 μl cells and 20 μl Ca-6 dye) using FLIPR. The final compound concentration was 10 μM and 0.1% DMSO. Between each measurement the plate was returned to the same incubator. Five extracted features were quantified: beating frequency/beats per minute (bpm), amplitude (ampl), area under the curve (auc), peak width (pkw), and peak width at 10% amplitude (ppkw) are measures informing about the depolarization and repolarization kinetics. […] Each compound was assessed as triplicate at 3 time points after incubation (T1: 5 min, T2: 30 min, T3: 90 min). A measurement was taken prior to compound addition (baseline, not shown). As there was little variability in the baseline measurement, it was not necessary to normalize against baseline. An average of the data of each feature for each time point was fed into the statistical model to determine significant effects.
The LMMs include random effects accounting for the different sources of variation from the experimental design.

Take `COc1ccc(CCN2CCC(Nc3nc4ccccc4n3Cc3ccc(F)cc3)CC2)cc1` [Astemizole]: the “detection as cardiotoxic in hiPSC-CMs (hiPSC-CM positive)” value (“detection as cardiotoxic in hiPSC-CMs” for short) in the series with Pluricyte hiPSC-CMs is “TP molecules for both models”. Moreover, the Bigeminy entry in the series with zebrafish larvae (in vivo) is reported as “Bigeminy”. Further, in series [1] (humans), the “cardiovascular clinical adverse effects” value was “promote cardiovascular clinical adverse effects through both the parent drug and metabolites”; the “market withdrawal due to cardiovascular adverse effects” value (“market withdrawal due” for short) is given as “withdrawn from the market due to cardiotoxicity concerns”.
As for `CC(C)COCC(CN(Cc1ccccc1)c1ccccc1)N1CCCC1` (stereo not drawn) [Bepridil], the “detection as cardiotoxic in zebrafish (zebrafish positive)” value (from here on “detection as cardiotoxic in zebrafish”) with zebrafish larvae (in vivo) was “detection”. Besides, the “market withdrawal due” value in series [1] (humans) is listed as “withdrawn from the market”.
With `CC(C)C[C@H]1C(=O)N2CCC[C@H]2[C@]2(O)O[C@](NC(=O)[C@@H]3C=C4c5cccc6[nH]c(Br)c(c56)C[C@H]4N(C)C3)(C(C)C)C(=O)N12` [Bromocriptine], the “time point of detection in hiPSC-CMs” value with Pluricyte hiPSC-CMs is given as “detected only at T3; also recorded: only detected as cardiotoxic through the late assessment”. The “detection in zebrafish due to features other than ventricular BPM” value with zebrafish larvae (5 dpf larvae, 4 h incubation at NOEC) is given as “detected for effects in features other than BPM; also recorded: enabled the detection”. The “irregular beating of the heart (arrhythmia)” value in the series with zebrafish larvae (5 dpf larvae, 4 h incubation at NOEC, representative example) is recorded as “arrhythmia”. For the same compound, the “market withdrawal due” value in series [1] (humans) was “withdrawn from the market”.
For `Cc1ccc(-c2cc(C(F)(F)F)nn2-c2ccc(S(N)(=O)=O)cc2)cc1` [Celecoxib], the “detection as cardiotoxic in hiPSC-CMs” value in the series with Pluricyte hiPSC-CMs is “failed to detect; also recorded: did not even detect”. Further, in the series with zebrafish larvae (in vivo), the “detection as cardiotoxic in zebrafish” value is listed as “could detect all”. In series [1] (humans), the “market withdrawal due” value is recorded as “withdrawn from the market due to cardiotoxicity concerns”.
For the compound `COc1cc(N)c(Cl)cc1C(=O)NC1CCN(CCCOc2ccc(F)cc2)CC1OC` (stereo not drawn) [Cisapride], in the series with zebrafish larvae (in vivo), the Bigeminy result is recorded as “Bigeminy” and the “detection as cardiotoxic in zebrafish” value is “could detect all”. For the same compound, in series [1] (humans), the “market withdrawal due” value was “withdrawn from the market due to cardiotoxicity concerns”.
As to `CN1CCN(C2=Nc3cc(Cl)ccc3Nc3ccccc32)CC1` [Clozapine], the “market withdrawal due” value in series [1] (humans) was “withdrawn from the market”.
Consider `CCN[C@@H](C)Cc1cccc(C(F)(F)F)c1` [Dexfenfluramine], for which the “detection as cardiotoxic in hiPSC-CMs” value in the series with Pluricyte hiPSC-CMs is “failed to detect”. The “detection as cardiotoxic in zebrafish” value in the series with zebrafish larvae (setting [2]) was “could detect all”. Further, in series [1] (humans), the “market withdrawal due” value is “withdrawn from the market due to cardiotoxicity concerns”.
For the compound `CN(CCOc1ccc(NS(C)(=O)=O)cc1)CCc1ccc(NS(C)(=O)=O)cc1` [Dofetilide], the “detection as cardiotoxic in zebrafish” value with zebrafish larvae (in vivo) is given as “detection”. For the same compound, the “market withdrawal due” value in series [1] (humans) was “withdrawn from the market”.
For `O=C(O[C@@H]1C[C@@H]2C[C@H]3C[C@H](C1)N2CC3=O)c1c[nH]c2ccccc12` [Dolasetron], the “detection as cardiotoxic in hiPSC-CMs” value with Pluricyte hiPSC-CMs is recorded as “failed to detect”. Also, the “detection as cardiotoxic in zebrafish” value in the series on zebrafish larvae (in vivo) is “could detect all”.
Consider `COc1cccc2c1C(=O)c1c(O)c3c(c(O)c1C2=O)C[C@@](O)(C(=O)CO)C[C@@H]3O[C@H]1C[C@H](N)[C@H](O)[C@H](C)O1` [Doxorubicin], for which, in series [1] (ref Raj et al., 2014), the cardiotoxicity in humans entry is “promotes both acute and chronic cardiotoxicity in humans”.
For the compound `O=C(CCCN1CC=C(n2c(=O)[nH]c3ccccc32)CC1)c1ccc(F)cc1` [Droperidol], the “market withdrawal due” value in series [1] (humans) was “withdrawn from the market”.
With `CCCCCCCN(CC)CCCC(O)c1ccc(NS(C)(=O)=O)cc1` (stereo not drawn) [Ibutilide], the cardiotoxicity in humans result in series [1] (ref Stambler et al., 1997) is given as “can induce or worsen ventricular arrhythmias with fatal consequences”.
Consider `CC(C)NCC(O)c1cc(O)cc(O)c1` (stereo not drawn) [Metaproterenol], for which the “detection as cardiotoxic in zebrafish” value with zebrafish larvae (in vivo) is on record as “could detect all”. In series [1] (humans), the “market withdrawal due” value is listed as “withdrawn from the market due to cardiotoxicity concerns”.
As for `COCCc1ccc(OCC(O)CNC(C)C)cc1` (stereo not drawn) [Metoprolol], the “irregular beating of the heart (arrhythmia)” value with zebrafish larvae (in vivo) was “arrhythmia”.
Consider `CCCN1C[C@H](CSC)C[C@@H]2c3cccc4[nH]cc(c34)C[C@H]21` [Pergolide], for which the “detection as cardiotoxic in hiPSC-CMs” value in the series on Pluricyte hiPSC-CMs is “failed to detect; also recorded: neither model detected”. Moreover, the “clinical adverse effect leading to withdrawal” value in series [1] (humans, no reference given) is “valvulopathies”. For the same compound, in series [1] (humans), the “market withdrawal due” value is “withdrawn from the market”.
With `CC(Cc1ccccc1)NCCC(c1ccccc1)c1ccccc1` (stereo not drawn) [Prenylamine], the “market withdrawal due” value in series [1] (humans) is recorded as “withdrawn from the market”. In addition, the “developmental defects in the acute toxicity test” value in the series on AB wildtype larvae is reported as “strong developmental defects”.
As to `CC(C)(Sc1cc(C(C)(C)C)c(O)c(C(C)(C)C)c1)Sc1cc(C(C)(C)C)c(O)c(C(C)(C)C)c1` [Probucol], in the series on Pluricyte hiPSC-CMs, the “arrhythmic phenotypes in hiPSC-CMs” value is reported as “does not show arrhythmic phenotypes” and the “detection as cardiotoxic in hiPSC-CMs” value is reported as “failed to detect; also recorded: cannot detect”. Moreover, the “effect on hERG activity” value in the series on hERG is “interfere with hERG activity”. Besides, the “detection as cardiotoxic in zebrafish” value in the series with zebrafish larvae (in vivo) is listed as “detection”.
Consider `CC(C)NCC(O)COc1cccc2ccccc12` (stereo not drawn) [Propranolol], for which, in the series with zebrafish larvae (in vivo), the “heart rate (ventricular BPM) phenotype” value was “bradycardia”.
Take `CNCC(O)c1ccc(O)c(O)c1` (stereo not drawn) [Racepinephrine]: in the series on zebrafish larvae (in vivo), the “detection as cardiotoxic in zebrafish” value is listed as “detection” and the “heart rate (ventricular BPM) phenotype” value is on record as “tachycardia”. In series [1] (humans), the “market withdrawal due” value was “withdrawn from the market”.
Turning to `CS(=O)(=O)c1ccc(C2=C(c3ccccc3)C(=O)OC2)cc1` [Rofecoxib], the “detection as cardiotoxic in hiPSC-CMs” value with Pluricyte hiPSC-CMs was “failed to detect; also recorded: did not even detect”. Also, in series [1] (humans), the “cardiovascular clinical adverse effects” value is “heart attack and stroke”; the “market withdrawal due” value is listed as “withdrawn from the market due to cardiotoxicity concerns”.
As to `CC(C)CC(N(C)C)C1(c2ccc(Cl)cc2)CCC1` (stereo not drawn) [Sibutramine], in the series with Pluricyte hiPSC-CMs, the “detection as cardiotoxic in hiPSC-CMs” value was “TP molecules for both models” and the “time point of detection in hiPSC-CMs” value is reported as “detected only at T3; also recorded: only detected as cardiotoxic through the late assessment”. Further, the “detection as cardiotoxic in zebrafish” value in the series on zebrafish larvae (setting [2]) is on record as “could detect all; also recorded: TP molecules for both models”. Besides, in series [1] (humans), the “cardiovascular clinical adverse effects” value is “promote cardiovascular clinical adverse effects through both the parent drug and metabolites”; the “market withdrawal due” value is “withdrawn from the market due to cardiotoxicity concerns”.
